Like-named read-outs stand apart in the source and are kept apart here.
Experiments:
hES cells [1] = assay: devTOX computational model predictions (Version 2.0, Version 2.1) from hES cell metabolomics; type: cell-based, human; conditions: single dose per treatment (Dose column)
Source text: The selection process weighted the predictive capacity of a feature, overall intensity, and peak shape to identify very well behaved features/metabolites that could be measured by targeted LC-MS or even by other detection systems.
(§1) This simplified model is based on a ratio of the reference treatment (DMSO) normalized values of ADMA and cystine.

hES cells [2] = assay: ADMA/cystine ratio simplified predictive model in hES cell spent media; type: cell-based, human; conditions: single dose per treatment; ratios less than 0.9 indicate teratogenicity
Source text: as §1
The X-axis is the reference normalized ratio of ADMA/Cystine. The y-axis is the training set of pharmaceuticals. Grey color with triangle glyphs represents teratogens and black color with circle glyphs represents non-teratogens. Each glyph point represents the media value of an independent experimental block (6 reps per block). The crosshair glyphs mark the sample medians. In FIG. 9, grey vertical line is threshold of teratogenicity, grey horizontal lines are the median absolute deviations, and black vertical line designates 1.0. The arrows at the bottom indicate the values used for differentiation of teratogens and nonteratogens, utilizing a cut off of 0.9 (grey line).

Humans = conditions: cited from earlier work; for Known Effect: validation and test set treatments of Example 2; for Humans (known human developmental toxicity): training and test set
WA09 hES cells [3] = assay: Phase 2 targeted biomarker assay, ornithine/cystine ratio, 9-point dose response
Source text: Undifferentiated hES Cell Line Maintenance (Phases 1 and 2). WA09 hES cells were obtained from the WiCell Research Institute (Madison, Wis.) and were maintained in feeder free conditions using mTeSR1 media (StemCell Technologies, Inc., Vancouver, BC, Canada) on hESC-qualified Matrigel (BD Biosciences, San Jose, Calif.) coated 6-well plates. To maintain the undifferentiated stem cell population, differentiated colonies were removed daily through aspiration and media was replaced. Additionally, the hES cells were only used in experiments up to passage 40 and were karyotyped approximately every 10 passages to minimize and monitor the potential for genetic instability. hES cells were passaged at 90-95% confluency (approximately every 7 days) using Versene (Life Technologies, Grand Island, N.Y.). Cell cultures were maintained at 37° C. under 5% CO2.
96-well hES Cell Plating (Phases 1 and 2). All experimental treatments were carried out in 96-well plates. To minimize plating variability and increase reproducibility, hES cells were plated as a single cell suspension and maintained in an undifferentiated state during compound exposure. Prior to plating in the 96-well plates, hES cells were removed from a 6-well plate using TrypLE (Life Technologies). The cells were washed with DMEM/F12 (Life Technologies) and resuspended in mTeSR1 containing 10 μM Y27632 Rho-associated kinase (ROCK) inhibitor (Merck KGaA/Calbiochem, Darmstadt, Germany). The ROCK inhibitor is added to the plating media to increase plating efficiency by decreasing dissociation-induced apoptosis. The inner 60 wells of hESC-qualified Matrigel coated 96-well plates were seeded at a density of 100,000 cells per well. The outer wells of the plate contained an equal volume media to minimize differences in humidity across the plate. Compound exposure began 24 hours after plating.
(§2) Phase 2 hES Cell Compound Exposure. […] The standard compound exposure levels used for most compounds were nine, 3-fold dilutions ranging from 0.04 μM-300 μM (FIG. 1B). […] The stock solution was diluted 1:1000 in mTeSR1 media and subsequent dilutions were performed in mTeSR1 containing 0.1% DMSO such that the final concentration of DMSO was 0.1% in all treatments. hES cells were treated for 72 hours and spent media from the last 24-hour treatment period was collected and added to acetonitrile containing ^13C6 labeled arginine (Cambridge Isotope Laboratories, Andover, Md.) as described under Phase 1. Spent media samples were stored at −80° C. until prepared for LC-HRMS analysis. Cell viability was assessed using the CellTiter-Fluor Cell Viability Assay. A quality control step was included with criteria that the CV of the measured viability RFU of the DMSO control cells could not exceed 10% for a plate to undergo LC-HRMS analysis. A dose response curve was fit to the reference treatment (0.1% DMSO treated control cells) normalized data (Viability RFUTrt X/Viability RFUDMSO) using a four-parameter log-logistic model with the R package “drc” (Ritz and Streibig, 2005, J Statistical Software; 12:1-22).
Sample Preparation (Phases 1 and 2). High molecular weight constituents (>10 KDa) of the spent media samples were removed using a Millipore Multiscreen Ultracel-10 filter plate (EMD Millipore, Billerica, Mass.). Prior to sample filtration, the filter plate was washed with 0.1% NaOH to remove a known contaminant polymer. The plate was then rinsed twice with HPLC-grade water to remove residual polymers and NaOH. Spent media samples were added to the washed filter plate. In Phase 1, samples were spiked with ^13C6 labeled arginine. Samples were centrifuged at 2,000×g at 4° C. for 200 minutes. The filtrate was collected and concentrated overnight in a Savant High Capacity Speedvac Plus Concentrator.

WA09 hES cells [4] = system: WA09 hES cells
Method: Phase I hES Cell Compound Exposure. hES cells were treated with a test compound at a single concentration equivalent to the compound's published therapeutic Cmax. […] This was done to ensure that enough cells were present at the time of sample collection to provide a signal for LC-HRMS analysis. For test compound exposure, all compound stock solutions, with the exception of valproic acid, were made with DMSO (Sigma-Aldrich). […] Each 96-well plate included media controls with and without test compound, 0.1% DMSO solvent control cells and cells exposed to a single concentration of eight different test compounds (FIG. 1A). Media controls were included on each plate to assess the impact of test compound on the sample matrix. hES cells were exposed to the test compound for 72 hours, with media and test compound replacement every 24 hours. Cells were monitored throughout the treatment period to ensure that no differentiation was occurring. After 72 hours of treatment, the spent media from the final 24-hour treatment period was collected and added to acetonitrile (Sigma-Aldrich, final acetonitrile concentration 40%), to halt metabolic processes and precipitate proteins from solution. Individual wells from each 96-well plate were collected and analyzed as separate samples. These samples were then stored at −80° C. until prepared for LC-HRMS analysis. Cell viability was assessed using the CellTiter-Fluor Cell Viability Assay as per the manufacturer's instructions (Promega, Madison, Wis.). Quality control parameters were set such that if the coefficient of variation (CV) for the viability relative fluorescent units (RFU) of the 6 cellular samples in a treatment exceeded 10% and no outliers were identified using the Grubb's test (see the worldwide web at graphpad.com/quickcalcs/Grubbs1.cfm), analysis was halted for that compound and the cell culture experiment was repeated. If outliers were present, the outlier sample was removed from analysis. If the CV for the DMSO control cell samples on a plate were outside of the quality control parameters, the entire plate was repeated. hES cell exposure to each of the 23 compounds was replicated a total of nine times.
as §2
Phase 2 Prediction of Developmental Toxicity Potential. […] FIG. 2 illustrates how the assay is applied in this situation. A test compound is considered to be teratogenic at the exposure level where the o/c ratio exceeds the teratogenicity threshold (red box, FIG. 2).

[5] = therapeutic peak plasma in vivo concentration, human, cited from earlier work
Rodent = conditions: training and test set; cited from earlier work
Rabbit = conditions: training and test set; cited from earlier work
[6] = summarized from TERIS and Briggs et al. 2011, cited from earlier work
[7] = test set, teratogenicity potential scored against therapeutic Cmax
[8] = training and test set, o/c ratio scored against therapeutic Cmax

Compound	Model Predictions Version 2.0 (hES cells [1])	Model Predictions Version 2.1 (hES cells [1])	Model Predictions ADMA/Cystine (hES cells [2])	Known Effect (Humans)	Humans (known human developmental toxicity) (Humans)	Rodent prediction (Rodent)	O/C Ratio Prediction (WA09 hES cells [3])	Targeted Biomarker Assay prediction (WA09 hES cells [3])	Teratogenicity Potential (μM) O/C Ratio (WA09 hES cells [3]; human, 72 h)	Viability Prediction (WA09 hES cells [4])	Teratogenicity Potential (μM) Cell Viability (WA09 hES cells [4]; human, 72 h)	Cmax ([5]; training set)	other results
C=CC=O [Acrolein]	Ter	Ter	Ter	Ter									
Nc1nc(N)c2nc(CNc3ccc(C(=O)N[C@@H](CCC(=O)O)C(=O)O)cc3)cnc2n1 [Aminopterin]	Ter	Ter	Ter	Ter	TER	TER							Teratogenicity Potential (μM) O/C Ratio (WA09 hES cells [3]; test set, interpolated concentration where o/c ratio dose response curve crosses teratogenicity threshold 0.88, 72 hours): 0.01 µM; O/C Ratio Prediction (WA09 hES cells [3]; [7]): TER; Targeted Biomarker Assay prediction (WA09 hES cells [3]; [8]): TER; Teratogenicity Potential (μM) Cell Viability (WA09 hES cells [4]; test set, interpolated concentration where cell viability dose response curve crosses teratogenicity threshold 0.88, 72 hours): 0.01 µM; Viability Prediction (WA09 hES cells [4]; [7]): TER; Cmax ([5]; test set): 0.3 µM; Rabbit prediction (Rabbit): TER; Preclinical in vivo and known human developmental effects ([6]; test set compounds): Craniofacial, limb, skeletal,
CC1(C)S[C@@H]2[C@H](NC(=O)[C@H](N)c3ccc(O)cc3)C(=O)N2[C@H]1C(=O)O [Amoxicillin]	Non	Non	Non	Non	NON	NON	NON	NON	>300 µM	NON	>300 µM		Cmax ([5]; test set): 20.5 µM; Preclinical in vivo and known human developmental effects ([6]; test set compounds): None
O=C1O[C@H]([C@@H](O)CO)C(O)=C1O [Ascorbic Acid]	Non	Non	Non					NON		NON	>300 µM	90 µM	
CN(C)CCOC(c1ccccc1)c1ccccc1 [Diphenhydramine]	Non	Non	Non					NON		NON	78.9 µM		
CN(C)CCOC(C)(c1ccccc1)c1ccccn1 (centres unmarked) [Doxylamine]	Non	Non	Non		NON			NON		NON	>300 µM	0.38 µM	
NC(=O)NO [Hydroxyurea]	Ter	Ter	Ter		TER			TER		TER	251.6 µM	565 µM	Cytotoxicity at the Cmax exposure level (WA09 hES cells [4]; human, 72 h): greater than 30%
N[C@@H](Cc1cc(I)c(Oc2cc(I)c(O)c(I)c2)c(I)c1)C(=O)O [Levothyroxine]	Ter	Non	Non	Non	NON	NON	NON	NON	43.5 µM	NON	>300 µM	0.14 µM	Rabbit prediction (Rabbit): NON; Preclinical in vivo and known human developmental effects ([6]; training set compounds): None
Cc1ncc(C[n+]2csc(CCO)c2C)c(N)n1 [Thiamine]	Non	Non	Non	Non	NON		NON	NON	>300 µM	NON	>300 µM	0.67 µM	Preclinical in vivo and known human developmental effects ([6]; training set compounds): None
CC(=O)CC(c1ccccc1)c1c(O)c2ccccc2oc1=O (centres unmarked) [Warfarin]	Ter	Ter	Ter		TER							23.4 µM	Targeted Biomarker Assay prediction (WA09 hES cells [3]; [8]): TER; Teratogenicity Potential (μM) Cell Viability (WA09 hES cells [4]; training set, interpolated concentration where cell viability dose response curve crosses teratogenicity threshold 0.88, 72 hours): >300 µM; Viability Prediction (WA09 hES cells [4]; training set, teratogenicity potential scored against therapeutic Cmax): NON
